Measurements from patent publication US20100099113A1, “MINIMIZED SMALL PEPTIDES WITH HIGH AFFINITY FOR FACTOR VIII AND FACTOR VIII-LIKE PROTEINS” (Technische Universitat Muenchen, priority 2006, published 2010).
Where no end group is shown, it is not given here. [ ]: non-standard residue; d: D form. Bpa = N[C@@H](Cc1ccc(C(=O)c2ccccc2)cc1)C(=O)O; 1Nal = N[C@@H](Cc1cccc2ccccc12)C(=O)O; Bta = N[C@@H](Cc1csc2ccccc12)C(=O)O; NMeY = CN[C@@H](Cc1ccc(O)cc1)C(=O)O; Phg = N[C@H](C(=O)O)c1ccccc1; Abu = CC[C@H](N)C(=O)O

Target: T1, Plasma-derived (pd-) human Factor VIII (Homo sapiens, UniProt P00451)
T1 construct: from tissue; host or cells: human blood plasma (FVIII concentrate)
Assay: Binding of 125I-labeled pd-FVIII to peptide-coated Toyopearl resin (micro-beads assay)
Conditions: for % Binding pdFVIII: peptide immobilized on Toyopearl AF-Epoxy-650M resin, 125I-pd-FVIII, 2 hours room temperature, percent of maximal achievable binding (anti-FVIII Mab 8860-coated resin), mean ± SD of four determinations
Description: Peptides S1 to S84 were immobilized on the Toyopearl AF-Epoxy-650M resin (Tosoh Biosep) as described by Jungbauer et al. For immobilization, 2.5 mg of each peptide was dissolved in 0.25 mL of the immobilization buffer (0.2 M sodium bicarbonate, pH 10.3), and 0.036 g of the dry resin powder (corresponding to 0.125 mL of swollen resin) was added, followed by incubation of the mixture with gentle rotation for 48 hours. Upon incubation for 48 hours the resin was washed once with immobilization buffer, once with 1 M NaCl and then 3 times with binding buffer, and binding of ^125I-labeled pd-FVIII to the peptide-coated and control resin was tested. The coupling density of each peptide in each of the reported experiments was as mentioned in Table 1. The control 0.25 mL portion of the resin was similarly treated in parallel experiment in the absence of peptide and was subsequently used as a control (designated as Background) in ^125I-pd-FVIII binding experiments. ^125I-pd-FVIII Bound/Background ratios were calculated as the amount of ^125I-pd-FVIII, bound to an immobilized peptide, divided by that bound to uncoated control resin, prepared as described above. This ratio represents a Signal/Noise ratio for the micro-beads assay, since ^125I-pd-FVIII bound to peptide represents the signal value and ^125I-pd-FVIII bound to peptide-uncoated resin represents the background (noise) value.
Plasma-derived (pd-) human Factor VIII (FVIII) was purified from concentrate by immunoaffinity chromatography on an anti-FVIII monoclonal antibody column followed by subsequent concentration of pd-FVIII by ion-exchange chromatography using Resource Q HR5/5 column.
The resin with immobilized peptides was washed in the binding buffer (0.01 M Hepes, 0.1 M NaCl, 5 mM CaCl2, 0.01% Tween-80). Subsequently, the resin was diluted in the binding buffer as 1:7 slurry and aliquoted into Eppendorf tubes (40 μL per tube). ^125I-pd-FVIII (100000 cpm in 10 μL) was added to the tubes and the volume of the mixture was adjusted to 100 μL by adding 50 μL of the binding buffer containing 4% BSA to give a 2% final concentration of BSA. After 2 hours of incubation at room temperature on a rotator, the samples were washed 4 times in the binding. After each wash the tubes were centrifuged at 5000 rpm for 1 min in an Eppendorf microcentrifuge, supernatant was discarded, and the resin was re-suspended in the washing buffer, followed by centrifugation under the same conditions. After four washes the tubes with pellet without supernatant were counted for radioactivity. The resin without peptide was processed similarly to account for non-specific pd-FVIII binding to tubes and resin itself, and the radioactivity in this control tube was considered as a background value. Since ^125I-pd-FVIII contains the some fraction damaged during radiolabeling, binding was calculated as a percent of maximal achievable binding, determined in separate experiment with anti-FVIII Mab 8860-coated resin.
All the measurements were performed in duplicates. Each experiment was performed using two independently prepared immobilized peptide samples. The data presented in each table are the mean values of the four determinations: duplicate determination in the two assays performed with beads on which peptides were independently immobilized on the different days. The value of standard deviation of the above quadruplicate determinations (duplicate determinations in two independent experiments) were typically less than 10% of the measured values of ^125I-pd-FVIII binding to peptides.

[1] = Table 3, hexapeptides with linker cysteine within the binding sequence
[2] = Table 2, peptides with C-terminal cysteine linker immobilized on Toyopearl AF-Epoxy-650M resin

T1 sequence (P00451 20-1667 limits assumed): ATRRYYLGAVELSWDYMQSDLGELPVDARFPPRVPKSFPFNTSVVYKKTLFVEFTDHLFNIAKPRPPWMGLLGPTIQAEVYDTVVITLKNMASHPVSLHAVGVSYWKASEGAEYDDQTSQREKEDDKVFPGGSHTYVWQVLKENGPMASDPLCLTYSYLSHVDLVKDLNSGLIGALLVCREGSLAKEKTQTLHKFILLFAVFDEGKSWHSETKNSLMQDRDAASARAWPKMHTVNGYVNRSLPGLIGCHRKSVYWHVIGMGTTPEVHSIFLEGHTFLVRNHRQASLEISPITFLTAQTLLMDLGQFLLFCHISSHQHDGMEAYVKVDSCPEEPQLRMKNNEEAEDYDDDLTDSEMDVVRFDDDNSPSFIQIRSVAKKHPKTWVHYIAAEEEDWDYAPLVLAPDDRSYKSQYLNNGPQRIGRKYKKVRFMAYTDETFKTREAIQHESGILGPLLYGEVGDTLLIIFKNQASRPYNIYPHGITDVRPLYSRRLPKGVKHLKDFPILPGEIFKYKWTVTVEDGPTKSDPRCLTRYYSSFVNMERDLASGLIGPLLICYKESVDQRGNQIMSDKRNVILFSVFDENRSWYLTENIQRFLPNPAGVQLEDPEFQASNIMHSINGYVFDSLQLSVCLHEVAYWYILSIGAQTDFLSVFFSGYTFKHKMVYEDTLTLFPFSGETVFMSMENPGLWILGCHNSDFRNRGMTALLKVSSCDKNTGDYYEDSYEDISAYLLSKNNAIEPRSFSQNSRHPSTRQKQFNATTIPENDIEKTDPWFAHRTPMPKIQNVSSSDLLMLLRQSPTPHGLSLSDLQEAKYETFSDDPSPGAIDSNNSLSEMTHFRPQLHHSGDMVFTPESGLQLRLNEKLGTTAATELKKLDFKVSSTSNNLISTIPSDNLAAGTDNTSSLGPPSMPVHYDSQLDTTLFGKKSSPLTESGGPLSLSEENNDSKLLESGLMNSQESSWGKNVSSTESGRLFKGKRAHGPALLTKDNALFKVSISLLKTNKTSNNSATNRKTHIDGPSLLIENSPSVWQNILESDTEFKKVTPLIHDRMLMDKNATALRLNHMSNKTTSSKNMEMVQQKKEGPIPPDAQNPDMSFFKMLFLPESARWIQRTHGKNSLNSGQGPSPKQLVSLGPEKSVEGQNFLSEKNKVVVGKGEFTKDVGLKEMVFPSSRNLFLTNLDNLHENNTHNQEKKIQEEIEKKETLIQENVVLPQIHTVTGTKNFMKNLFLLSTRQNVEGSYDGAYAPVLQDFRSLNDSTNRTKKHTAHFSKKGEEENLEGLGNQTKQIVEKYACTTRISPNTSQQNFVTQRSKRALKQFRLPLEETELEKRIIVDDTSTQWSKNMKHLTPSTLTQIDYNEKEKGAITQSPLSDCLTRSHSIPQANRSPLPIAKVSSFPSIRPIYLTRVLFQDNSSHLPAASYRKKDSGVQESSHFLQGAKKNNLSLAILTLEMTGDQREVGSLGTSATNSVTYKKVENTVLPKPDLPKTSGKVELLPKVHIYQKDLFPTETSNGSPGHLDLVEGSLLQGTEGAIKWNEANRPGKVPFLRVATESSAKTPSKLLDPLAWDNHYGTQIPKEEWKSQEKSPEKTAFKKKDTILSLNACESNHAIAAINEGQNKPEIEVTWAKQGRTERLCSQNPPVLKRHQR
T1 sequence (P00451 1668-2351 limits assumed): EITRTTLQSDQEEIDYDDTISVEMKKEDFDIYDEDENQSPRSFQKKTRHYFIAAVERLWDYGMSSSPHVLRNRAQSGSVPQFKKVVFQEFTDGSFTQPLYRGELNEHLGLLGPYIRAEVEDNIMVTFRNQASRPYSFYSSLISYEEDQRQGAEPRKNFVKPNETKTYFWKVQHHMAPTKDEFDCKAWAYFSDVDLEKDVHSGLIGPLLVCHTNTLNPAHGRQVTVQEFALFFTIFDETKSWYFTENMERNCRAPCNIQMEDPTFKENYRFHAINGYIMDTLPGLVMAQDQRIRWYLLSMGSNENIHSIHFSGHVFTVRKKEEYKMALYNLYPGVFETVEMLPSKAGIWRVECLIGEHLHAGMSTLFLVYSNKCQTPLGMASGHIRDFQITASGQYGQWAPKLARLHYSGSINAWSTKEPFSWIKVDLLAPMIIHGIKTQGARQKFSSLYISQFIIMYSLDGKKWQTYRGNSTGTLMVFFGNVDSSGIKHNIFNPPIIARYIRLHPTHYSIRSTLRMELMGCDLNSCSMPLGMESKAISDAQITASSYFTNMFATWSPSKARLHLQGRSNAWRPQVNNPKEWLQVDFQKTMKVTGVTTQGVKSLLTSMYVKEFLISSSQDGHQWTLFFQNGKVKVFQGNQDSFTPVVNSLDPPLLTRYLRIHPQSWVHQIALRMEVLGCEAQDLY

Substance | % Binding Factor VIII [1] [%] | % Binding pdFVIII [%] | % Binding Factor VIII [2] [%]
YH[Abu]WDYC [S39] |  | 46.4 ± 0.8 | 
y-e-w-s-c-y [S8] | 69 | 69.4 ± 6.6 | 
Y-W-E-Y-C [S79] |  | 47.7 ± 0.45 | 
S-Bpa-E-Phg-C [S72] |  | 41.3 ± 1.4 | 
Y-C-S-W-E-Y (YCSWEY) [S7] | 64 | 64.1 ± 3.2 | 
Ac-Y-H-S-W-E-Y-C (Ac-YHSWEYC) [S32] |  | 62.2 ± 4.4 | 62
S-Bpa-E-Y-C [S71] |  | 30.6 ± 0.4 | 
YHS[Bta]EYC [S78] |  | 6.0 ± 0.8 | 
Y-F-(N-Me)S-W-E-Y-C [S22] |  | 47.6 ± 4.6 | 
S-(2-Nal)-E-Bip(4,4′)-C [S63] |  | 41.4 ± 1.2 | 
S-Bpa-E-Bip(4,4′)-C [S59] |  | 30.9 ± 2.1 | 
(N-Me)Y-C-S-W-E-Y ([NMeY]CSWEY) [S69] |  | 7.1 ± 0.7 | 
Y-C-T-W-D-Y-NH2 (YCTWDY-NH2) [S3] |  | 42.3 ± 4.3 | 
Y-C-A-W-D-Y (YCAWDY) [S16] | 72 | 72.0 ± 15.5 | 
Ac-Y-C-T-W-D-Y (Ac-YCTWDY) [S14] |  | 82.3 ± 1.4 | 
Y-C-S-W-E-(N-Me)Y [S26] |  | 48.8 ± 3.1 | 
YCS[Bpa]EY [S15] |  | 49.4 ± 2.2 | 

Substance | % Binding Factor VIII [1] [%] | % Binding pdFVIII [%] | % Binding Factor VIII [2] [%]
Y-H-S-Phe(3,4-Cl)-E-Y-C [S77] |  | 34.4 ± 3.2 | 
YF[Abu]WEFC [S33] |  | 53.4 ± 5.3 | 53
S-Phe(3,4-Cl)-E-Bpa-C [S67] |  | 47.7 ± 0.0 | 
YCS[1Nal]EY [S80] |  | 35.3 ± 3.0 | 
Ac-H-S-W-E-Y-C (Ac-HSWEYC) [S31] |  | 48.9 ± 3.0 | 49
Y-F-S-W-(N-Me)E-Y-C [S23] |  | 53.1 ± 0.3 | 
Y-f-S-W-(N-Me)E-Y-C [S28] |  | 65.1 ± 2.5 | 
Y-H-V-W-E-Y-C (YHVWEYC) [S76] |  | 26.6 ± 1.3 | 
y-e-w-a-c-y [S83] |  | 53.6 ± 2.5 | 
Y-C-T-W-E-Y (YCTWEY) [S10] | 80 | 80.3 ± 1.3 | 
y-d-w-t-c-y [S13] |  | 53.8 ± 0.5 | 
y-d-w-a-c-y [S17] | 75 | 75.1 ± 0.6 | 
Y-C-(N-Me)S-W-E-Y [S24] |  | 14.4 ± 0.4 | 
Y-C-S-(N-Me)W-E-Y [S70] |  | 72.2 ± 1.7 | 
Ac-Y-C-T-W-D-Y-NH2 (Ac-YCTWDY-NH2) [S4] |  | 58.5 ± 2.4 | 
Ac-Y-C-S-W-E-Y (Ac-YCSWEY) [S9] | 82 | 81.6 ± 2.8 | 

Other lines, results leading:

% Binding Factor VIII [1] [%] | % Binding pdFVIII [%] | % Binding Factor VIII [2] [%] | Substance
73 | 73.4 ± 5.6 |  | y-d-w-v-c-y [S19]
 | 42.6 ± 1.3 | 43 | Ac-S-W-E-Y-C [S30]
 | 55.8 ± 2.3 |  | Y-c-S-W-E-Y [S6]
 | 54.3 ± 2.1 |  | Y-Y-S-W-E-Y-C (YYSWEYC) [S68]
 | 40.0 ± 2.5 |  | S-Phe(4-Cl)-E--Bpa-C [S66]
 | 59.2 ± 4.6 |  | Ac-Y-C-S-W-E-Y-NH2 (Ac-YCSWEY-NH2) [S2]
 |  | 50 | EYHSWEYC [reference compound]
 | 45.2 ± 2.5 |  | Y-C-S-W-(N-Me)E-Y [S25]
 | 36.2 ± 1.5 |  | S-Bip(4,4′)-E-Bpa-C [S64]
 | 72.1 ± 7.2 |  | Y-C-A-W-E-Y (YCAWEY) [S81]
 | 37.1 ± 1.0 |  | c-y-e-w-s [S35]
 | 39.1 ± 1.2 |  | YHS[Bpa]EYC [S37]
 | 34.9 ± 0.4 |  | YHSWE[Phg]C [S74]
 | 48.4 ± 3.7 |  | (N-Me)S-W-E-Y-C [S21]
80 | 79.9 ± 4.0 |  | Y-C-S-W-D-Y (YCSWDY) [S11]
72 | 72.0 ± 1.2 |  | Y-C-V-W-D-Y (YCVWDY) [S18]

% Binding Factor VIII [1] [%] | % Binding pdFVIII [%] | % Binding Factor VIII [2] [%] | Substance
 | 39.2 ± 2.4 |  | S-Bta-E-Bpa-C [S65]
 | 33.9 ± 3.2 |  | S-Bpa-E-Phe(4-Cl)-C [S60]
 | 59.7 ± 3.8 |  | Y-homoC-S-W-E-Y [S5]
 | 54.4 ± 4.9 | 54 | H-S-W-E-Y-C (HSWEYC) [S29]
74 | 74.2 ± 4.2 |  | Y-C-T-W-D-Y (YCTWDY) [S12]
 | 1.1 ± 3.3 |  | S-Bpa-E-Bpa-C [S61]
 | 40.0 ± 2.8 |  | S-W-E-Bpa-C [S73]
 | 57.5 ± 4.6 |  | Y-f-(N-Me)S-W-E-Y-C [S27]
 | 38.6 ± 0.4 |  | S-(1-Nal)-E-Bip(4,4′)-C [S62]
 | 77.0 ± 4.2 |  | y-e-w-v-c-y [S84]
 | 28.1 ± 0.3 |  | YHS[Bpa]E[Phg]C [S75]
 | 35.4 ± 6.6 |  | S-Bpa-E-(1-Nal)-C [S57]
 | 42.0 ± 5.3 |  | S-Bpa-E-(2-Nal)-C [S58]
 | 41.8 ± 3.2 |  | Y-C-S-W-E-Y-NH2 (YCSWEY-NH2) [S1]
 | 94.1 ± 4.70 |  | Y-C-V-W-E-Y (YCVWEY) [S82]
 | 53.6 ± 2.7 | 54 | Y-f-S-W-E-Y-C [S34]
